The source of these data is ChEMBL document CHEMBL4145513, “An overview on crystal structures of InhA protein: Apo-form, in complex with its natural ligands and inhibitors” (Eur J Med Chem, 2018).

≈ marks a conversion by molar mass, not a printed value. Where only a bound is given, the exact number is not on record here.

Test [1] relates to Mycobacterium tuberculosis. The test is described as follows: Antimycobacterial activity against Mycobacterium tuberculosis. The format is functional.
Test [2] addresses T1, Enoyl-[acyl-carrier-protein] reductase [NADH] (Mycobacterium tuberculosis, UniProt P9WGR1).
T1 sequence (P9WGR1 whole entry): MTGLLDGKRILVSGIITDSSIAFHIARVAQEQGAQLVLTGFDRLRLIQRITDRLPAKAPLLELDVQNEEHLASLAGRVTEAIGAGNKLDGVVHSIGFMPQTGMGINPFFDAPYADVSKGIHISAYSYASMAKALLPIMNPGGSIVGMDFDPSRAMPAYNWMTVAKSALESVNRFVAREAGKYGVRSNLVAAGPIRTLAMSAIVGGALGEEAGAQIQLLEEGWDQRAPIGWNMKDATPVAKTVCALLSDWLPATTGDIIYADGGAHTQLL
The experiment in a line: Inhibition of Mycobacterium tuberculosis InhA.

For test [3], the target named is T1, Enoyl-[acyl-carrier-protein] reductase [NADH]. The experiment in a line: Inhibition of Mycobacterium tuberculosis InhA using trans-2-decenoyl-CoA as substrate by spectrophotometric analysis.
The target is the same in test [4]. The test is described as follows: Binding affinity to Mycobacterium tuberculosis InhA in presence of NADH by surface plasmon resonance assay. In general terms: Surface plasmon resonance follows binding to a sensor surface in real time, without labels.
Test [5] has as its system Mycobacterium tuberculosis. The test is described as follows: Antimycobacterial activity against Mycobacterium tuberculosis after 5 days by fluoresence analysis. It is filed as functional. The settings on record: 120 h.
Test [6] addresses T1, Enoyl-[acyl-carrier-protein] reductase [NADH].
For test [7] the target is unchanged. The experiment in a line: Binding affinity to Mycobacterium tuberculosis InhA in presence of NAD+ by surface plasmon resonance assay.
The target is the same in test [8]. The test is described as follows: Inhibition of Mycobacterium tuberculosis InhA using dodecenoyl-CoA as substrate in presence of NADH by fluorimetric analysis.
The target is the same in test [9]. The test is described as follows: Binding affinity to Mycobacterium tuberculosis InhA in presence of NADH.
Test [10] has the same target. The experiment in a line: Binding affinity to Mycobacterium tuberculosis InhA in presence of NAD+.
For test [11] the target is unchanged. The test is described as follows: Inhibition of Mycobacterium tuberculosis InhA using trans-2-dodecenoyl-CoA as substrate.
Test [12] has the same target. The experiment in a line: Binding affinity to Mycobacterium tuberculosis InhA in presence of TCEP and NADH by isothermal titration calorimetry. (ITC needs no label: the signal is the heat of the interaction.)

As to `CCCCCCc1ccc(Oc2ccccc2Br)c(O)c1`, in [1], the MIC50 (usually an inhibitory concentration at the 50% level, which refers to growth in some studies and to a panel of isolates in others) was found to be 8.8 µM (≈ 3.07 µg/mL). Moreover, 10 nM corresponded to half-maximal inhibition in test [2] (IC50).
Turning to `CCc1cc(C(=O)c2cc[n+]([C@@H]3O[C@H](COP(=O)(O)OP(=O)(O)OC[C@H]4O[C@@H](n5cnc6c(N)ncnc65)[C@H](O)[C@@H]4O)[C@@H](O)[C@H]3O)cc2C(N)=O)ccn1`, in [1], the MIC50 turned out to be 3 µM. Besides, the affinity in test [2] corresponds to a Ki of 7 nM.
Turning to `NC(=O)c1c[n+]([C@@H]2O[C@H](COP(=O)(O)OP(=O)(O)OC[C@H]3O[C@@H](n4cnc5c(N)ncnc54)[C@H](O)[C@@H]3O)[C@@H](O)[C@H]2O)ccc1C(=O)c1ccncc1`, the affinity in test [3], expressed as Ki, was 0.75 nM.
As to `CCCCCc1ccc(Oc2ccc(Cl)cc2Cl)c(O)c1`, the MIC99 (as a rule, an inhibitory concentration at the 99% level, which refers to growth in some studies and to a panel of isolates in others) in test [1] turned out to be 3.5 µM (≈ 1.14 µg/mL). In addition, in test [2], the Ki (usually a measure of affinity in units of concentration, obtained from inhibition or displacement) worked out at 11.8 nM.
In the case of `CNC(=O)[C@@H]1C[C@H](NC(=O)[C@@H](NC(=O)c2ccc(Cn3cccn3)cc2)[C@@H](C)OC(C)(C)C)CN1C(=O)c1ccccc1`, the Kd (commonly the constant that tells how readily two partners part at equilibrium) in [4] is 55 nM; in [7], 49000 nM. The MIC50 in test [5] was 0.13 µM (≈ 0.0765 µg/mL). In test [6], inhibition was half-maximal at 12000 nM (IC50).
For the compound `CNC(=O)CN(C(=O)Cc1ccc(-n2cccn2)cc1)C1CCN(c2ccccn2)CC1`, the values for the Kd in [4] and in [7] were 36.8 nM and greater than 100000 nM, respectively. The compound also gave an MIC50 in [5] of 50 µM (≈ 21.6 µg/mL). For the same compound, half-maximal inhibition in test [6] (IC50) was put at 5900 nM.
Take `CCCCCCc1ccc(Oc2ccccc2C)c(O)c1`: the MIC50 in test [1] is 10.9 µM (≈ 3.1 µg/mL).
With `CNC(=O)CN1CCN(C(=O)[C@H]2CC[C@@H](NC(=O)Cc3sc4ccccc4c3C)CC2)[C@@H](Cc2ccccc2)C1=O`, the Kd came to 340 nM in test [4] and 13400 nM in test [7]. Also, the MIC50 in [5] worked out at 13 µM (≈ 7.47 µg/mL). Further, 65 nM corresponded to half-maximal inhibition in [6] (IC50).
Turning to `Cc1cc(C)n(Cc2ccc(C(=O)NCc3ccc(F)cc3Cl)cc2)n1`, the MIC90 (commonly the lowest concentration that inhibits either 90% of growth or 90% of the strains tested, depending on the study) in test [1] was determined as 10 µM (≈ 3.72 µg/mL). In [2], this compound yielded a Ki of 50 nM.
For the compound `Cc1csc(C(C)(O)c2nnc(Nc3ccn(Cc4c(F)cccc4F)n3)s2)n1` (centres undefined), the half-maximal inhibitory concentration (IC50) (commonly the point on the concentration scale where inhibition reaches its midpoint) in test [8] is 3 nM. The compound also yielded an MIC50 in test [1] of 0.19 µM (≈ 0.0826 µg/mL). Moreover, the Kd in test [9] came out at 11.5 nM; in [10] it was 9300 nM.
In the case of `Cc1csc(C(C)(O)c2n[nH]/c(=N\C(=O)c3c(F)cccc3F)s2)n1` (centres undefined), the IC50 in test [8] is 200 nM. The MIC50 in test [1] came out at 3.75 µM (≈ 1.43 µg/mL).
Consider `CCCCCCc1ccc(Oc2ccccc2C#N)c(O)c1`, for which, in test [1], the MIC50 came to 8.4 µM (≈ 2.48 µg/mL). Moreover, the inhibition constant Ki in test [2] was determined as 2.14 nM.
On to `O=c1[nH]c(CC2CCCCC2)cc(O)c1-c1ccccc1`, for which, in test [1], the MIC50 was 0.31 µM (≈ 0.0878 µg/mL). In addition, the IC50 in test [11] came out at 590 nM. For the same compound, the Kd in test [12] turned out to be 560 nM.
`Cc1ccn(C(C)c2nnc(Nc3ccn(Cc4c(F)cccc4Cl)n3)s2)n1` (centres undefined): the MIC50 in test [1] turned out to be 1 µM (≈ 0.418 µg/mL). The same compound yielded a Ki in [2] of 2 nM.
As for `CNC(=O)c1cnc(NC2CCN(c3ccccn3)CC2)c(NCc2ccc(F)c(Oc3ccccc3)c2)c1`, the Kd was 250 nM in [4] and greater than 100000 nM in test [7]. The same compound displayed an MIC50 in [5] of 25 µM (≈ 13.2 µg/mL). For the same compound, in test [6], the midpoint of inhibition, the IC50, lay at 297 nM.
For the compound `CCCc1cc(C(=O)c2cc[n+]([C@@H]3O[C@H](COP(=O)(O)OP(=O)(O)OC[C@H]4O[C@@H](n5cnc6c(N)ncnc65)[C@H](O)[C@@H]4O)[C@@H](O)[C@H]3O)cc2C(N)=O)ccn1`, the MIC50 in test [1] is 2.7 µM. The compound also gave a Ki in [2] of 2 nM.
For `CNC(=O)CN(Cc1ccc(F)cc1)C(=O)[C@H]1CC[C@@H](NC(=O)Cc2sc3ccccc3c2C)CC1`, the Kd in test [4] worked out at 94 nM; in test [7], 46700 nM. In addition, the IC50 in [6] came to 600 nM.
`CCCCCCc1ccc(Oc2ccccc2[N+](=O)[O-])c(O)c1`: in [1], the MIC50 came to 39.6 µM (≈ 12.5 µg/mL).
Consider `Oc1cc(CCc2ccccc2)ccc1Oc1ccc(Cl)cc1Cl`, for which the MIC50 in test [1] was determined as 52 µM (≈ 18.7 µg/mL). Moreover, the IC50 in [2] was 21 nM.
In [1], `CC1(C)CCC(Cc2cc(O)c(-c3ccccc3)c(=O)[nH]2)CC1` came in with an MIC50 of 0.08 µM (≈ 0.0249 µg/mL). In [11], the IC50 is 570 nM.
The compound `CCCCc1ccnc(Cc2ccc(Oc3ccc(Cl)cc3Cl)c(O)c2)c1` came in with an MIC99 in [1] of 6.4 µM (≈ 2.57 µg/mL). The compound further showed a Ki in test [2] of 1100 nM.
For `NNC(=O)c1ccncc1` [ISONIAZID], it took 1.8 µM (≈ 0.247 µg/mL) to inhibit growth in [1] (MIC).
In test [1], `CCCCCCc1ccc(Oc2ccccc2Cl)c(O)c1` yielded an MIC50 of 5.1 µM (≈ 1.55 µg/mL).
`NC(=O)c1c[n+]([C@@H]2O[C@H](COP(=O)(O)OP(=O)(O)OC[C@H]3O[C@@H](n4cnc5c(N)ncnc54)[C@H](OP(=O)(O)O)[C@@H]3O)[C@@H](O)[C@H]2O)ccc1C(=O)c1ccncc1` came in with a Ki in test [2] of 130 nM.
In turn, `Oc1cc(CC2CCCCC2)ccc1Oc1ccc(Cl)cc1Cl` gave an MIC50 in test [1] of 27 µM (≈ 9.48 µg/mL). For the same compound, the IC50 in test [2] turned out to be 110 nM.
Compound `Oc1cc(Cl)ccc1Oc1ccc(Cl)cc1Cl` [TRICLOSAN] had an MIC99 in test [1] of 43.1 µM (≈ 12.5 µg/mL).
For `Oc1cc(Cc2ccccc2)ccc1Oc1ccc(Cl)cc1Cl`, the MIC50 in [1] stood at 27 µM (≈ 9.32 µg/mL). For the same compound, in [2], the IC50 amounted to 51 nM.
